{
  "source": "patent US10118935B2",
  "about": "“Melampomagnolide B dimers” (priority 2014, dated 2018)",
  "key": {"MCF7": {"tested_on": "MCF7", "experiment": "NCI 60 cell line five dose, Breast Cancer"}, "NCI-H460": {"tested_on": "NCI-H460", "experiment": "NCI 60 cell line five dose, Non-Small Cell Lung Cancer"}, "MALME-3M": {"tested_on": "MALME-3M", "experiment": "NCI 60 cell line five dose, Melanoma", "conditions": "MAL1ME−3M"}, "HOP-92": {"tested_on": "HOP-92", "experiment": "NCI 60 cell line five dose, Non-Small Cell Lung Cancer"}, "UACC-257": {"tested_on": "UACC-257", "experiment": "NCI 60 cell line five dose, Melanoma"}, "MDA-MB-435": {"tested_on": "MDA-MB-435", "experiment": "NCI 60 cell line five dose, Melanoma"}, "U251": {"tested_on": "U251", "experiment": "NCI 60 cell line five dose, CNS Cancer"}, "SNB-75": {"tested_on": "SNB-75", "experiment": "NCI 60 cell line five dose, CNS Cancer"}, "UO-31": {"tested_on": "UO-31", "experiment": "NCI 60 cell line five dose, Renal Cancer"}, "HCT-15": {"tested_on": "HCT-15", "experiment": "NCI 60 cell line five dose, Colon Cancer"}},
  "note": "Read-outs that look alike come from different tables or passages of the source.",
  "data": [
    {"smiles": "C=C1C(=O)O[C@H]2[C@H]1CC/C(COC(=O)NCCCCCCCCNC(=O)OC/C1=C/CC[C@@]3(C)O[C@H]3[C@H]3OC(=O)C(=C)[C@@H]3CC1)=C\\CC[C@@]1(C)O[C@@H]21", "note": "[JVM 3-62, bis(((1aR,7aS, 10aS, 10bS, E)-1a-Methyl-8-methylene-9-oxo-1a,2,3,6,7,7a,8,9,10a,10b-decahydrooxireno[2′,3′:9,10]cyclodeca[1,2-b]furan-5-yl)methyl)octane-1,8-diyldicarbamate]", "values": [
      {"measurement": "Percent Growth", "setting": "MCF7; Log10 Concentration −4.0", "result": "−54", "unit": "%"},
      {"measurement": "Percent Growth", "setting": "MCF7; Log10 Concentration −5.0", "result": "−75", "unit": "%"},
      {"measurement": "Percent Growth", "setting": "MCF7; Log10 Concentration −6.0", "result": "−7", "unit": "%"},
      {"measurement": "Percent Growth", "setting": "MCF7; Log10 Concentration −7.0", "result": 80, "unit": "%"},
      {"measurement": "Percent Growth", "setting": "MCF7; Log10 Concentration −8.0", "result": 89, "unit": "%"},
      {"measurement": "GI50", "setting": "MCF7; molar", "result": 221, "unit": "nM"},
      {"measurement": "TGI", "setting": "MCF7; molar", "result": "8.33E−7"},
      {"measurement": "CC50", "setting": "MCF7; read-out: LC50, molar", "result": 4300, "unit": "nM"},
      {"measurement": "Percent Growth", "setting": "NCI-H460; Log10 Concentration −4.0", "result": "−64", "unit": "%"},
      {"measurement": "Percent Growth", "setting": "NCI-H460; Log10 Concentration −5.0", "result": "−56", "unit": "%"},
      {"measurement": "Percent Growth", "setting": "NCI-H460; Log10 Concentration −6.0", "result": 84, "unit": "%"},
      {"measurement": "Percent Growth", "setting": "NCI-H460; Log10 Concentration −7.0", "result": 102, "unit": "%"},
      {"measurement": "Percent Growth", "setting": "NCI-H460; Log10 Concentration −8.0", "result": 104, "unit": "%"},
      {"measurement": "GI50", "setting": "NCI-H460; molar", "result": 1750, "unit": "nM"},
      {"measurement": "TGI", "setting": "NCI-H460; molar", "result": "3.98E−6"},
      {"measurement": "CC50", "setting": "NCI-H460; read-out: LC50, molar", "result": 9020, "unit": "nM"},
      {"measurement": "Percent Growth", "setting": "MALME-3M; Log10 Concentration −4.0", "result": "−65", "unit": "%"},
      {"measurement": "Percent Growth", "setting": "MALME-3M; Log10 Concentration −5.0", "result": "−58", "unit": "%"},
      {"measurement": "Percent Growth", "setting": "MALME-3M; Log10 Concentration −6.0", "result": "−55", "unit": "%"},
      {"measurement": "Percent Growth", "setting": "MALME-3M; Log10 Concentration −7.0", "result": 95, "unit": "%"},
      {"measurement": "Percent Growth", "setting": "MALME-3M; Log10 Concentration −8.0", "result": 95, "unit": "%"},
      {"measurement": "GI50", "setting": "MALME-3M; molar", "result": 199, "unit": "nM"},
      {"measurement": "CC50", "setting": "MALME-3M; read-out: LC50, molar", "result": 929, "unit": "nM"},
      {"measurement": "Percent Growth", "setting": "HOP-92; Log10 Concentration −4.0", "result": "−88", "unit": "%"},
      {"measurement": "Percent Growth", "setting": "HOP-92; Log10 Concentration −5.0", "result": "−92", "unit": "%"},
      {"measurement": "Percent Growth", "setting": "HOP-92; Log10 Concentration −6.0", "result": "−26", "unit": "%"},
      {"measurement": "Percent Growth", "setting": "HOP-92; Log10 Concentration −7.0", "result": 75, "unit": "%"},
      {"measurement": "Percent Growth", "setting": "HOP-92; Log10 Concentration −8.0", "result": 87, "unit": "%"},
      {"measurement": "GI50", "setting": "HOP-92; molar", "result": 177, "unit": "nM"},
      {"measurement": "TGI", "setting": "HOP-92; molar", "result": "5.51E−7"},
      {"measurement": "CC50", "setting": "HOP-92; read-out: LC50, molar", "result": 2290, "unit": "nM"},
      {"measurement": "Percent Growth", "setting": "UACC-257; Log10 Concentration −4.0", "result": "−55", "unit": "%"},
      {"measurement": "Percent Growth", "setting": "UACC-257; Log10 Concentration −5.0", "result": "−57", "unit": "%"},
      {"measurement": "Percent Growth", "setting": "UACC-257; Log10 Concentration −6.0", "result": 47, "unit": "%"},
      {"measurement": "Percent Growth", "setting": "UACC-257; Log10 Concentration −7.0", "result": 89, "unit": "%"},
      {"measurement": "Percent Growth", "setting": "UACC-257; Log10 Concentration −8.0", "result": 97, "unit": "%"},
      {"measurement": "GI50", "setting": "UACC-257; molar", "result": 848, "unit": "nM"},
      {"measurement": "TGI", "setting": "UACC-257; molar", "result": "2.82E−6"},
      {"measurement": "CC50", "setting": "UACC-257; read-out: LC50, molar", "result": 8510, "unit": "nM"},
      {"measurement": "Percent Growth", "setting": "MDA-MB-435; Log10 Concentration −4.0", "result": "−86", "unit": "%"},
      {"measurement": "Percent Growth", "setting": "MDA-MB-435; Log10 Concentration −5.0", "result": "−74", "unit": "%"},
      {"measurement": "Percent Growth", "setting": "MDA-MB-435; Log10 Concentration −6.0", "result": "−18", "unit": "%"},
      {"measurement": "Percent Growth", "setting": "MDA-MB-435; Log10 Concentration −7.0", "result": 92, "unit": "%"},
      {"measurement": "Percent Growth", "setting": "MDA-MB-435; Log10 Concentration −8.0", "result": 91, "unit": "%"},
      {"measurement": "GI50", "setting": "MDA-MB-435; molar", "result": 241, "unit": "nM"},
      {"measurement": "TGI", "setting": "MDA-MB-435; molar", "result": "6.86E−7"},
      {"measurement": "CC50", "setting": "MDA-MB-435; read-out: LC50, molar", "result": 3740, "unit": "nM"},
      {"measurement": "Percent Growth", "setting": "U251; Log10 Concentration −4.0", "result": "−77", "unit": "%"},
      {"measurement": "Percent Growth", "setting": "U251; Log10 Concentration −5.0", "result": "−79", "unit": "%"},
      {"measurement": "Percent Growth", "setting": "U251; Log10 Concentration −6.0", "result": "−18", "unit": "%"},
      {"measurement": "Percent Growth", "setting": "U251; Log10 Concentration −7.0", "result": 91, "unit": "%"},
      {"measurement": "Percent Growth", "setting": "U251; Log10 Concentration −8.0", "result": 96, "unit": "%"},
      {"measurement": "GI50", "setting": "U251; molar", "result": 578, "unit": "nM"},
      {"measurement": "TGI", "setting": "U251; molar", "result": "2.00E−6"},
      {"measurement": "CC50", "setting": "U251; read-out: LC50, molar", "result": 5130, "unit": "nM"},
      {"measurement": "Percent Growth", "setting": "SNB-75; Log10 Concentration −4.0", "result": "−100", "unit": "%"},
      {"measurement": "Percent Growth", "setting": "SNB-75; Log10 Concentration −5.0", "result": "−51", "unit": "%"},
      {"measurement": "Percent Growth", "setting": "SNB-75; Log10 Concentration −6.0", "result": 61, "unit": "%"},
      {"measurement": "Percent Growth", "setting": "SNB-75; Log10 Concentration −7.0", "result": 78, "unit": "%"},
      {"measurement": "Percent Growth", "setting": "SNB-75; Log10 Concentration −8.0", "result": 72, "unit": "%"},
      {"measurement": "GI50", "setting": "SNB-75; molar", "result": 1250, "unit": "nM"},
      {"measurement": "CC50", "setting": "SNB-75; read-out: LC50, molar", "result": 9840, "unit": "nM"},
      {"measurement": "Percent Growth", "setting": "UO-31; Log10 Concentration −4.0", "result": "−87", "unit": "%"},
      {"measurement": "Percent Growth", "setting": "UO-31; Log10 Concentration −5.0", "result": "−94", "unit": "%"},
      {"measurement": "Percent Growth", "setting": "UO-31; Log10 Concentration −6.0", "result": 48, "unit": "%"},
      {"measurement": "Percent Growth", "setting": "UO-31; Log10 Concentration −7.0", "result": 90, "unit": "%"},
      {"measurement": "Percent Growth", "setting": "UO-31; Log10 Concentration −8.0", "result": 90, "unit": "%"},
      {"measurement": "GI50", "setting": "UO-31; molar", "result": 880, "unit": "nM"},
      {"measurement": "TGI", "setting": "UO-31; molar", "result": "2.17E−6"},
      {"measurement": "CC50", "setting": "UO-31; read-out: LC50, molar", "result": 4900, "unit": "nM"},
      {"measurement": "Percent Growth", "setting": "HCT-15; Log10 Concentration −4.0", "result": 83, "unit": "%"},
      {"measurement": "Percent Growth", "setting": "HCT-15; Log10 Concentration −5.0", "result": "−90", "unit": "%"},
      {"measurement": "Percent Growth", "setting": "HCT-15; Log10 Concentration −6.0", "result": 16, "unit": "%"},
      {"measurement": "Percent Growth", "setting": "HCT-15; Log10 Concentration −7.0", "result": 90, "unit": "%"},
      {"measurement": "Percent Growth", "setting": "HCT-15; Log10 Concentration −8.0", "result": 91, "unit": "%"},
      {"measurement": "GI50", "setting": "HCT-15; molar", "result": 346, "unit": "nM"},
      {"measurement": "TGI", "setting": "HCT-15; molar", "result": "1.41E−6"},
      {"measurement": "CC50", "setting": "HCT-15; read-out: LC50, molar", "result": 4160, "unit": "nM"},
      {"measurement": "Percent Growth", "setting": "HL-60(TB); Log10 Concentration −4.0", "result": "−39", "unit": "%"},
      {"measurement": "Percent Growth", "setting": "HL-60(TB); Log10 Concentration −5.0", "result": "−37", "unit": "%"},
      {"measurement": "Percent Growth", "setting": "HL-60(TB); Log10 Concentration −6.0", "result": "−6", "unit": "%"},
      {"measurement": "Percent Growth", "setting": "HL-60(TB); Log10 Concentration −7.0", "result": 92, "unit": "%"},
      {"measurement": "Percent Growth", "setting": "HL-60(TB); Log10 Concentration −8.0", "result": 103, "unit": "%"},
      {"measurement": "GI50", "setting": "HL-60(TB); molar", "result": 268, "unit": "nM"}
    ]}
  ]
}
